# Where two headings read alike, the source gives them in different places.
# Legend:
# [1] = test system: Russian thistle (SASKR, Salsola kali); test: Greenhouse postemergence herbicidal effect; assay type: in vivo
# Experimental: (§1) The plants were grown for 7-36 days (d) in a greenhouse with an approximate 14-hour (h) photo-period which was maintained at about 23° C. during the day and 22° C. during the night. Nutrients and water were added on a regular basis and supplemental lighting was provided with overhead metal halide 1000-Watt lamps as necessary. The plants were employed for testing when they reached the second or third true leaf stage.
# (§2) The emulsifiable concentrates also included a safener, cloquintocet-mexyl, at 120 grams active ingredient per liter (g ai/L), unless otherwise noted below.
# (§3) Control plants were sprayed in the same manner with the solvent blank. All pyridine carboxylate herbicide (component a) application rates are given as “g ae/ha” and all ALS inhibitor (component b) application rates are given as “g ai/ha.”
# (§4) The treated plants and control plants were placed in a greenhouse as described above and watered by sub-irrigation to prevent wash-off of the test compounds. After 20-22 d, the condition of the test plants as compared with that of the control plants was determined visually and scored on a scale of 0 to 100 percent where 0 corresponds to no injury and 100 corresponds to complete kill.
# [2] = test system: spring rape (BRSNN, Brassica napus); test: Greenhouse postemergence herbicidal effect; assay type: in vivo
# Experimental: as §1, §2, §3, §4
# [3] = test system: Canadian thistle (CIRAR, Cirsium arvense); test: Greenhouse postemergence herbicidal effect; assay type: in vivo; conditions: for Obs % visual injury: CIRAR
# Experimental: as §1, §2, §3, §4
# [4] = test system: wild mustard (SINAR, Sinapis arvensis); test: Greenhouse postemergence herbicidal effect; assay type: in vivo
# Experimental: as §1, §2, §3, §4
# [5] = test system: wild chamomile (MATCH, Matricaria chamomilla); test: Greenhouse postemergence herbicidal effect; assay type: in vivo
# Experimental: as §1, §2, §3, §4
# spring barley (HORVS) = assay type: in vivo, Hordeum vulgare; conditions: for Obs % visual injury: HORVS
# Experimental: as §1, §2, §3, §4
# spring wheat (TRZAS) = assay type: in vivo, Triticum aestivum; conditions: for Obs % visual injury: TRZAS
# Experimental: as §1, §2, §3, §4
# [6] = test system: kochia (KCHSC, Kochia scoparia); test: Greenhouse postemergence herbicidal effect; assay type: in vivo
# Experimental: (§5) Seeds of the desired test plant species were planted in a 90:10% v/v (volume/volume) mixture of PRO-MIX® BX (Premier Tech Horticulture, Quakertown, PA, USA) and PROFILE® GREENS GRADE™ (Profile Products LLC, Buffalo Grove, IL, USA) planting mixture, which typically has a pH of 5.2 to 6.2 and an organic matter content of at least 50 percent, in plastic pots with a surface area of 103.2 square centimeters (cm^2). […] The plants were grown for 7-36 days (d) in a greenhouse with an approximate 14-hour (h) photo-period which was maintained at about 23° C. during the day and 22° C. during the night. Nutrients and water were added on a regular basis and supplemental lighting was provided with overhead metal halide 1000-Watt lamps as necessary. The plants were employed for testing when they reached the second or third true leaf stage.
# (§6) Emulsifiable concentrates of each of each pyridine carboxylate herbicide (Compound A or Compound B) were prepared at 100 grams acid equivalent per liter (g ae/L). The emulsifiable concentrates also included a safener, cloquintocet-mexyl, at 120 grams active ingredient per liter (g ai/L), unless otherwise noted below. An aliquot of each emulsifiable concentrate was placed in a 25 mL glass vial and diluted with an aqueous mixture of 1.25% (v/v) ACTIROB® B esterified rapeseed oil (Bayer Crop Science, Research Triangle Park, NC, USA) or MSO® Concentrate with LECI-TECH® methylated soybean oil (Loveland Products, Loveland, CO, USA) to obtain concentrated stock solutions at the highest application rate for each herbicide, based upon a 12 milliliter (mL) application volume at a rate of 187 liters per hectare (L/ha). The concentrated stock solutions were further diluted with an aqueous mixture of 1.25% v/v ACTIROB® B or MSO® Concentrate with LECI-TECH® to obtain stock solutions at reduced application rates for each herbicide. Spray solutions of the herbicide combinations (Compound A or Compound B plus ALS herbicide) were prepared by adding weighed amounts or aliquots of the ALS herbicides to the stock solutions of Compound A or Compound B to form 12-mL spray solutions in two- or three-way combinations.
# (§7) The spray solutions were applied to the plant material with an overhead Mandel track sprayer equipped with 8002E nozzles calibrated to deliver 187 L/ha over an application area of 0.503 square meters (m^2) at a spray height of 18 inches (43 centimeters (cm)) above the average plant canopy. Control plants were sprayed in the same manner with the solvent blank. All pyridine carboxylate herbicide (component a) application rates are given as “g ae/ha” and all ALS inhibitor (component b) application rates are given as “g ai/ha.”
# as §4
# [7] = test system: common lambsquarters (CHEAL, Chenopodium album L.); test: Greenhouse postemergence herbicidal effect; assay type: in vivo; conditions: for Obs % visual injury: CHEAL
# Experimental: as §5, §6, §7, §4
# [8] = test system: wild buckwheat (POLCO, Polygonum convolvulus); test: Greenhouse postemergence herbicidal effect; assay type: in vivo
# Experimental: as §1, §2, §3, §4
# [9] = test system: winter rape (BRSNW, Brassica napus); test: Greenhouse postemergence herbicidal effect; assay type: in vivo
# Experimental: as §1, §2, §3, §4
# [10] = test system: wild pansy (VIOTR, Viola tricolor); test: Greenhouse postemergence herbicidal effect; assay type: in vivo
# Experimental: as §1, §2, §3, §4
# [11] = test system: pigweed (AMARE, Amaranthus retroflexus); test: Greenhouse postemergence herbicidal effect; assay type: in vivo
# Experimental: as §1, §2, §3, §4
compound,measurement,setting,value
"CON=C(C)c1cccc(Oc2nc(OC)cc(OC)n2)c1C(=O)O (mixture of isomers) [Pyriminobac, pyriminobac]","% visual injury, Obs",[1]; 17.5 g/ha,0%
same,"% visual injury, Obs",[2]; 17.5 g/ha,0%
same,pest or weed control at 17.5 g/ha,"[3]; Cirsium arvense, post-emergence, read-out: % visual injury, Obs",0%
same,"% visual injury, Obs",[4]; 17.5 g/ha,5%
same,"% visual injury, Obs",[5]; 17.5 g/ha,5%
same,"% visual injury, Obs",spring barley (HORVS); 17.5 g/ha,0%
same,"% visual injury, Obs",spring wheat (TRZAS); 17.5 g/ha,0%
same,pest or weed control at 17.5 g/ha,"[6]; Bassia scoparia, post-emergence, read-out: % visual injury, Obs",0%
same,"% visual injury, Obs",[7]; 17.5 g/ha,5%
"COc1cc(OC)nc(NC(=O)NS(=O)(=O)N(C)S(C)(=O)=O)n1 [Amidosulfuron, amidosulfuron]","% visual injury, Obs",[2]; 22.5 g/ha,98%
same,% visual injury,[8]; Amidosulfuron 45 g/ha,55%
same,% visual injury,[3]; Amidosulfuron 45 g/ha,18%
same,pest or weed control at 22.5 g/ha,"[3]; Cirsium arvense, post-emergence, 22.5 g/ha, read-out: % visual injury, Obs",15%
same,% visual injury,[9]; Amidosulfuron 45 g/ha,98%
same,"% visual injury, Obs",[10]; 22.5 g/ha,18%
same,% visual injury,[11]; Amidosulfuron 45 g/ha,100%
same,% visual injury,[4]; Amidosulfuron 45 g/ha,82%
same,% visual injury,[5]; Amidosulfuron 45 g/ha,50%
same,% visual injury,[6]; Amidosulfuron 45 g/ha,5%
same,pest or weed control at 22.5 g/ha,"[6]; Bassia scoparia, post-emergence, 22.5 g/ha, read-out: % visual injury, Obs",15%
same,% visual injury,[7]; Amidosulfuron 45 g/ha,25%
"CCOc1nc(F)cc2nc(S(=O)(=O)Nc3c(Cl)cccc3C(=O)O)nn12 [Cloransulam, cloransulam]",% visual injury Obs,[1]; Cloransulam 17.5 g/ha,25%
same,% visual injury Obs,[2]; Cloransulam 17.5 g/ha,100%
same,% visual injury Obs,[8]; Cloransulam 17.5 g/ha,80%
same,% visual injury Obs,[11]; Cloransulam 17.5 g/ha,15%
same,% visual injury Obs,[4]; Cloransulam 17.5 g/ha,97%
same,% visual injury Obs,[5]; Cloransulam 17.5 g/ha,40%
same,% visual injury Obs,spring barley (HORVS); Cloransulam 17.5 g/ha,15%
same,% visual injury Obs,spring wheat (TRZAS); Cloransulam 17.5 g/ha,0%
same,% visual injury Obs,[6]; Cloransulam 17.5 g/ha,0%
same,% visual injury Obs,[7]; Cloransulam 17.5 g/ha,0%
"CCOc1nc(F)cc2nc(S(=O)(=O)Nc3c(Cl)cccc3Cl)nn12 [Diclosulam, diclosulam]",% visual injury Obs,[1]; Diclosulam 17.5 g/ha,25%
same,% visual injury Obs,[2]; Diclosulam 17.5 g/ha,100%
same,% visual injury Obs,[8]; Diclosulam 17.5 g/ha,98%
same,% visual injury Obs,[11]; Diclosulam 17.5 g/ha,85%
same,% visual injury Obs,[4]; Diclosulam 17.5 g/ha,100%
same,% visual injury Obs,[5]; Diclosulam 17.5 g/ha,68%
same,% visual injury Obs,[6]; Diclosulam 17.5 g/ha,0%
same,% visual injury Obs,[7]; Diclosulam 17.5 g/ha,0%
"COCc1cnc(C2=NC(C)(C(C)C)C(=O)N2)c(C(=O)O)c1 (centres unmarked) [Imazamox, imazamox]",pest or weed control at 17.5 g/ha,"[3]; Cirsium arvense, post-emergence, 17.5 g/ha, read-out: % visual injury, Obs",63%
same,"% visual injury, Obs",[10]; 17.5 g/ha,75%
"CC(C)C1(C)N=C(c2ncccc2C(=O)O)NC1=O (centres unmarked) [Imazapyr, imazapyr]",pest or weed control at 140 g/ha,"[3]; Cirsium arvense, post-emergence, 140 g/ha, read-out: % visual injury, Obs",80%
same,"% visual injury, Obs",[10]; 140 g/ha,63%
same,pest or weed control at 140 g/ha,"[6]; Bassia scoparia, post-emergence, 140 g/ha, read-out: % visual injury, Obs",54%
"COc1cc(OC)nc(Sc2cccc3c2C(=O)OC3C)n1 (centres unmarked) [Pyriftalid, pyriftalid]","% visual injury, Obs",[1]; 30 g/ha,0%
same,"% visual injury, Obs",[2]; 30 g/ha,18%
same,"% visual injury, Obs",[4]; 30 g/ha,23%
same,"% visual injury, Obs",[5]; 30 g/ha,0%
same,"% visual injury, Obs",spring barley (HORVS); 30 g/ha,5%
same,"% visual injury, Obs",spring wheat (TRZAS); 30 g/ha,0%
same,pest or weed control at 30 g/ha,"[6]; Bassia scoparia, post-emergence, 30 g/ha, read-out: % visual injury, Obs",0%
"COc1nn(C(=O)NS(=O)(=O)c2c(C(=O)O)csc2C)c(=O)n1C [Thiencarbazone, thiencarbazone]",% visual injury,[1]; Thiencarbazone 5 g/ha,53%
same,% visual injury,[8]; Thiencarbazone 5 g/ha,89%
same,% visual injury Obs,[8]; Thiencarbazone 10 g/ha,95%
same,% visual injury,[3]; Thiencarbazone 5 g/ha,10%
same,% visual injury Obs,[3]; Thiencarbazone 10 g/ha,45%
same,% visual injury,[9]; Thiencarbazone 5 g/ha,97%
same,% visual injury Obs,[9]; Thiencarbazone 10 g/ha,98%
same,% visual injury,[11]; Thiencarbazone 5 g/ha,83%
same,% visual injury Obs,[11]; Thiencarbazone 10 g/ha,98%
same,% visual injury,[4]; Thiencarbazone 5 g/ha,95%
same,% visual injury Obs,[4]; Thiencarbazone 10 g/ha,90%
same,% visual injury,[5]; Thiencarbazone 5 g/ha,55%
same,% visual injury Obs,[5]; Thiencarbazone 10 g/ha,80%
same,% visual injury,spring barley (HORVS); in vivo,0%
same,% visual injury Obs,spring barley (HORVS); in vivo,8%
same,% visual injury,spring wheat (TRZAS); in vivo,0%
same,% visual injury Obs,spring wheat (TRZAS); in vivo,0%
same,% visual injury,[6]; Thiencarbazone 5 g/ha,25%
same,% visual injury Obs,[6]; Thiencarbazone 10 g/ha,45%
same,% visual injury,[7]; Thiencarbazone 5 g/ha,60%
same,% visual injury Obs,[7]; Thiencarbazone 10 g/ha,83%
imazamethabenz,% visual injury,[1]; Imazamethabenz 100 g/ha,0%
same,Obs % visual injury,"[1]; SASKR, Imazamethabenz 100 g/ha",13%
same,% visual injury,[8]; Imazamethabenz 100 g/ha,70%
same,Obs % visual injury,"[8]; POLCO, Imazamethabenz 200 g/ha",88%
same,Obs % visual injury,[3]; Imazamethabenz 100 g/ha,5%
same,Obs % visual injury,[3]; Imazamethabenz 200 g/ha,5%
same,% visual injury,[3]; Imazamethabenz 100 g/ha,0%
same,Obs % visual injury,"[9]; BRSNW, Imazamethabenz 200 g/ha",53%
same,% visual injury,[9]; Imazamethabenz 100 g/ha,35%
same,Obs % visual injury,"[11]; AMARE, Imazamethabenz 200 g/ha",5%
same,% visual injury,[11]; Imazamethabenz 100 g/ha,0%
same,% visual injury,[4]; Imazamethabenz 100 g/ha,68%
same,Obs % visual injury,"[4]; SINAR, Imazamethabenz 200 g/ha",75%
same,% visual injury,[5]; Imazamethabenz 100 g/ha,0%
same,Obs % visual injury,"[5]; MATCH, Imazamethabenz 200 g/ha",5%
same,Obs % visual injury,spring barley (HORVS); Imazamethabenz 100 g/ha,0%
same,Obs % visual injury,spring barley (HORVS); Imazamethabenz 200 g/ha,0%
same,% visual injury,spring barley (HORVS); Imazamethabenz 100 g/ha,0%
same,% visual injury,spring wheat (TRZAS); Imazamethabenz 100 g/ha,0%
same,Obs % visual injury,spring wheat (TRZAS); Imazamethabenz 100 g/ha,0%
same,Obs % visual injury,spring wheat (TRZAS); Imazamethabenz 200 g/ha,0%
same,% visual injury,[6]; Imazamethabenz 100 g/ha,0%
same,Obs % visual injury,"[6]; KCHSC, Imazamethabenz 200 g/ha",0%
same,Obs % visual injury,[7]; Imazamethabenz 100 g/ha,0%
same,Obs % visual injury,[7]; Imazamethabenz 200 g/ha,0%
same,% visual injury,[7]; Imazamethabenz 100 g/ha,0%

# Reference: US12285012B2, “Compositions comprising pyridine carboxylate herbicides with acetolactate synthase (ALS) inhibitor herbicides” (Corteva Agriscience LLC, priority 2018, dated 2025)
